Experiments:
[1] = tested on: Mycobacterium tuberculosis; assay: Inhibition of multidrug resistance efflux pump Rv1258c in Mycobacterium tuberculosis H37Rv assessed as rifampicin MIC99 by MABA method
[2] = tested on: Mycobacterium tuberculosis; assay: Inhibition of multidrug resistance efflux pump Rv1258c in Mycobacterium tuberculosis H37Rv assessed as reduction in rifampicin MIC99 by MABA method
[3] = tested on: Mycobacterium tuberculosis; assay: Inhibition of multidrug resistance efflux pump Rv1258c in Mycobacterium tuberculosis H37Rv assessed as potentiation of rifampicin-induced antimycobacterial activity by MABA method based Chequerboard synergy assay

Structure (SMILES)	MIC99 [1] [nM]	fold change (FC) [2]	fractional inhibitory concentration index (FICI) [3]
COc1ccc(CCN(CCCC(C#N)(c2ccc(OC)c(OC)c2)C(C)C)C2CC2)cc1OC (centres undefined)	4.2	2	0.75
CCN(CCCC(C#N)(c1ccc(OC)c(OC)c1)C(C)C)CCc1ccc(OC)c(OC)c1 (centres undefined)	8.3	–	1
CCCN(CCCC(C#N)(c1ccc(OC)c(OC)c1)C(C)C)CCc1ccc(OC)c(OC)c1 (centres undefined)	8.3	–	0.78
COc1ccc(CCN(CCCC(C#N)(c2ccc(OC)c(OC)c2)C(C)C)Cc2ccccc2)cc1OC (centres undefined)	2.1	4	0.3
COc1ccc(N(C)CCCC(C#N)(c2ccc(OC)c(OC)c2)C(C)C)cc1OC (centres undefined)	8.3	–	–
COc1ccc(CN(C)CCCC(C#N)(c2ccc(OC)c(OC)c2)C(C)C)cc1OC (centres undefined)	8.3	–	–
COc1ccc(C(C#N)(CCCN2CCCCC2)C(C)C)cc1OC (centres undefined)	4.2	2	1
COc1ccc(C(C#N)(CCCN2CCOCC2)C(C)C)cc1OC (centres undefined)	8.3	–	1.5
COc1ccc(C(C#N)(CCCN2CCC(O)CC2)C(C)C)cc1OC (centres undefined)	8.3	–	1.5
COc1ccc(C(C#N)(CCCN2CCC(N3CCCCC3)CC2)C(C)C)cc1OC (centres undefined)	4.2	2	1
COc1ccc(C(C#N)(CCCN2CCC(O)(c3ccccc3)CC2)C(C)C)cc1OC (centres undefined)	4.2	2	1
COc1ccc(C(C#N)(CCCN2CCN(c3ccccc3)CC2)C(C)C)cc1OC (centres undefined)	4.2	2	0.75
COc1ccc(C(C#N)(CCCN2CCN(c3ccccn3)CC2)C(C)C)cc1OC (centres undefined)	2.1	4	0.75
COc1ccc(C(C#N)(CCCN2CCN(c3ccccc3F)CC2)C(C)C)cc1OC (centres undefined)	8.3	–	1.5
COc1ccc(CCN(C)CCCC(C#N)c2ccc(OC)c(OC)c2)cc1OC (centres undefined)	4.2	2	1
COc1ccc(CCN(C)CCCC(C)(C#N)c2ccc(OC)c(OC)c2)cc1OC (centres undefined)	4.2	2	1
CCC(C#N)(CCCN(C)CCc1ccc(OC)c(OC)c1)c1ccc(OC)c(OC)c1 (centres undefined)	2.1	4	0.75
CCCC(C#N)(CCCN(C)CCc1ccc(OC)c(OC)c1)c1ccc(OC)c(OC)c1 (centres undefined)	2.1	4	0.75
COc1ccc(CCN(C)CCCC(C#N)(c2ccc(OC)c(OC)c2)C2CCCC2)cc1OC (centres undefined)	4.2	2	1
COc1ccc(CCN(C)CCCC(C#N)(c2ccc(OC)c(OC)c2)C2CCCCC2)cc1OC (centres undefined)	2.1	4	1.25
COc1ccc(CCNCCCC(C#N)(c2ccc(OC)c(OC)c2)C(C)C)cc1OC (centres undefined) [NORVERAPAMIL]	4.2	2	0.56

Source: ChEMBL document CHEMBL3352715, “Synthesis of new verapamil analogues and their evaluation in combination with rifampicin against Mycobacterium tuberculosis and molecular docking studies in the binding site of efflux protein Rv1258c” (2014)
